Test results from patent publication US11986452B2, “Methods of reducing the risk of heart failure” (Amarin Pharmaceuticals Ireland Limited, priority 2021, dated 2024).

Tested on: TG, non-HDL-C, LDL-C, HDL-C, Apo B, hsCRP
Experiment: REDUCE-IT fasting lipid profile and biomarker assays over time
Assay type: in vivo, human
Conditions: for Apo B between group difference vs placebo, median % change from baseline / Apo B between group difference vs placebo, median absolute change from baseline / HDL-C between group difference vs placebo, median % change from baseline / HDL-C between group difference vs placebo, median absolute change from baseline / LDL-C Hopkins between group difference vs placebo, median % change from baseline / LDL-C Hopkins between group difference vs placebo, median absolute change from baseline / LDL-C derived between group difference vs placebo, median % change from baseline / LDL-C derived between group difference vs placebo, median absolute change from baseline / Log hsCRP between group difference vs placebo, median absolute change from baseline / Non-HDL-C between group difference vs placebo, median % change from baseline / Non-HDL-C between group difference vs placebo, median absolute change from baseline / Triglycerides between group difference vs placebo, median absolute change from baseline / hsCRP between group difference vs placebo, median absolute change from baseline: ITT
Description: Fasting Lipid Profile: The fasting lipid panel included: TG, TC, LDL-C, HDL-C, non-HDL-C, and VLDL-C. At all visits, LDL-C was calculated using the Friedewald equation. At Visit 1 and Visit 1.1 direct LDL-C were used if at the same visit TG>400 mg/dL (4.52 mmol/L). These LDL-C values were used for the evaluation of the LDL-C inclusion criterion (LDL-C qualifying measurements for randomization) and for the assessment of changes in the statin therapy when LDL-C was not at goal. […] In addition, irrespective of the TG levels, at Visit 2 (0 Months of Follow-up, baseline) and at Visit 4 (12 Months of Follow-up), LDL-C were measured by preparative ultracentrifugation. These preparative ultracentrifugation LDL-C measurements were used in the statistical analysis including the calculation of the percent change from baseline (1 year versus baseline). Hopkins LDL-C was calculated for each visit.
Biomarkers Assays: The biomarker assays included: hsCRP, Apo B and hsTnT.
The fasting lipid panel was tested at Screening (Visit 1 or Visit 1.1), Randomization visit (Visit 2; Day 0), Visit 3 (Day 120; ˜4 Months) and all other follow-up visits including the last visit. For change from baseline to 1 year preparative ultracentrifugation measurements for LDL-C were analyzed, unless this value was missing. If the LDL-C preparative ultracentrifugation values were missing, then another LDL-C value was used, with prioritization of values obtained from LDL-C Direct measurements, followed by LDL-C derived by the Friedewald calculation (only for subjects with TG<400 mg/dL), and finally LDL-C derived using the calculation published by Hopkins University investigators (Martin S S, Blaha M J, Elshazly M B, et al. Comparison of a novel method vs the Friedewald equation for estimating low-density lipoprotein cholesterol levels from the standard lipid profile. JAMA. 2013; 310:2061-8.). In addition, change from baseline to day 120 in LDL-C utilizing Friedewald's and Hopkins methods was analyzed, using the arithmetic mean of LDL-C obtained at Visit 2 (Day 0) and the preceding Visit 1 (or Visit 1.1). If one of these values was missing, the single available LDL-C value was used. LDL-C according to Hopkins was calculated at each visit.
The randomization visit was considered Baseline. If a baseline value was not available from the randomization visit, then the latest screening value was used. For measurements of lipids, lipoproteins and inflammatory markers, the change and the percent change were summarized at each visit. Since these biomarkers are typically not normally distributed, the Wilcoxon rank-sum test was used for treatment comparisons of the percent change from baseline, and medians and quartiles were provided for each treatment group. The medians of the differences between the treatment groups and 95% CIs were estimated with the Hodges-Lehmann method. In addition, shift-tables were generated as appropriate.

In the case of `CC/C=C\C/C=C\C/C=C\C/C=C\C/C=C\CCCC(=O)OCC` [icosapent ethyl, eicosapentaenoic acid ethyl ester], the “Apo B between group difference vs placebo, median % change from baseline” value (Last Visit) is reported as −6.7%, the “Apo B between group difference vs placebo, median absolute change from baseline” value (Last Visit) is reported as -5.0 mg/dL and the “HDL-C between group difference vs placebo, median % change from baseline” value (Last Visit) is reported as −3.0%. For the same molecule, the “HDL-C between group difference vs placebo, median absolute change from baseline” value (Last Visit) was -1.0 mg/dL, the “LDL-C Hopkins between group difference vs placebo, median % change from baseline” value (Last Visit) was −7.4% and the “LDL-C Hopkins between group difference vs placebo, median absolute change from baseline” value (Last Visit) was -6.2 mg/dL. The “LDL-C derived between group difference vs placebo, median % change from baseline” value (Last Visit) was −6.6%, the “LDL-C derived between group difference vs placebo, median absolute change from baseline” value (Last Visit) was -5.0 mg/dL and the “Log hsCRP between group difference vs placebo, median absolute change from baseline” value (Last Visit) was −0.4 mg/L. For the same molecule, the “Non-HDL-C between group difference vs placebo, median % change from baseline” value (Last Visit) was −8.6%, the “Non-HDL-C between group difference vs placebo, median absolute change from baseline” value (Last Visit) was -10.0 mg/dL and the “Triglycerides between group difference vs placebo, median absolute change from baseline” value (Last Visit) was -32.0 mg/dL. The “hsCRP between group difference vs placebo, median absolute change from baseline” value (Last Visit) was -0.8 mg/L, the “HDL-C between group difference vs placebo, median % change from baseline” value (Month 4) was −7.2% and the “HDL-C between group difference vs placebo, median absolute change from baseline” value (Month 4) was -3.0 mg/dL. The “LDL-C Hopkins between group difference vs placebo, median absolute change from baseline” value (Month 4) was -8.7 mg/dL, the “Apo B median value” (Year 1 (Table 18)) was 80.0 mg/dL and the hsCRP median value (Year 1 (Table 18)) was 1.8 mg/L. The “HDL-C between group difference vs placebo, median % change from baseline” value (Year 1) was −6.3%, the “HDL-C between group difference vs placebo, median absolute change from baseline” value (Year 1) was -2.5 mg/dL and the “LDL-C Hopkins between group difference vs placebo, median absolute change from baseline” value (Year 1) was -9.6 mg/dL. The “LDL-C derived between group difference vs placebo, median % change from baseline” value (Year 1) was −6.6%, the “LDL-C derived between group difference vs placebo, median absolute change from baseline” value (Year 1) was -5.0 mg/dL and the “Apo B between group difference vs placebo, median % change from baseline” value (Year 2) was −9.7%. For the same molecule, the “Apo B between group difference vs placebo, median absolute change from baseline” value (Year 2) was -8.0 mg/dL, the “HDL-C between group difference vs placebo, median % change from baseline” value (Year 2) was −4.6% and the “HDL-C between group difference vs placebo, median absolute change from baseline” value (Year 2) was -2.0 mg/dL. For the same molecule, the “LDL-C Hopkins between group difference vs placebo, median absolute change from baseline” value (Year 2) was -9.4 mg/dL, the “Log hsCRP between group difference vs placebo, median absolute change from baseline” value (Year 2) was −0.4 mg/L and the “hsCRP between group difference vs placebo, median absolute change from baseline” value (Year 2) was -0.9 mg/L. The “HDL-C between group difference vs placebo, median % change from baseline” value (Year 3) was −3.8%, the “HDL-C between group difference vs placebo, median absolute change from baseline” value (Year 3) was -1.5 mg/dL and the “LDL-C Hopkins between group difference vs placebo, median absolute change from baseline” value (Year 3) was -8.7 mg/dL. For the same molecule, the “HDL-C between group difference vs placebo, median % change from baseline” value (Year 4) was −3.9%, the “HDL-C between group difference vs placebo, median absolute change from baseline” value (Year 4) was -1.5 mg/dL and the “LDL-C Hopkins between group difference vs placebo, median absolute change from baseline” value (Year 4) was -8.9 mg/dL. For the same molecule, the “Non-HDL-C between group difference vs placebo, median % change from baseline” value (Year 4) was −12.0%, the “Non-HDL-C between group difference vs placebo, median absolute change from baseline” value (Year 4) was -14.0 mg/dL and the “Triglycerides between group difference vs placebo, median absolute change from baseline” value (Year 4) was -38.0 mg/dL. The “HDL-C between group difference vs placebo, median % change from baseline” value (Year 5) was −3.0%, the “HDL-C between group difference vs placebo, median absolute change from baseline” value (Year 5) was -1.5 mg/dL and the “LDL-C Hopkins between group difference vs placebo, median % change from baseline” value (Year 5) was −8.0%. For the same molecule, the “LDL-C Hopkins between group difference vs placebo, median absolute change from baseline” value (Year 5) was -6.6 mg/dL, the “Non-HDL-C between group difference vs placebo, median % change from baseline” value (Year 5) was −9.9% and the “Non-HDL-C between group difference vs placebo, median absolute change from baseline” value (Year 5) was -11.0 mg/dL. For the same molecule, the “Triglycerides: median reduction from baseline greater than in placebo group (Hodges-Lehmann)” value (baseline to one year) was 19.7%.
